{"source": "ChEMBL document CHEMBL1123796", "about": "“New antitumor agents containing the anthracene nucleus” (1987)", "assay_type_in_all_cases": "functional", "key": {"[1]": {"system": "RPMI-8226", "assay": "Effect on protein synthesis was determined by incorporation of radioligand into 8226 human myeloma cells at a concentration of 1 ug/mL. (*: >1 log cell kill)"}, "[2]": {"system": "P388", "assay": "Antileukemic activity against P-388 in mice at a dose of 30 mg/kg administered intraperitoneally after 5 day treatment", "conditions": "Mus musculus, P388, ip, 120 h, route intraperitoneal"}, "[3]": {"system": "Mus musculus", "assay": "Tested for high-dose toxicity in mice at a significant dose of 90 mg/kg administered intraperitoneally after 5 days of treatment", "conditions": "route intraperitoneal"}, "[4]": {"system": "L1210", "assay": "Antileukemic activity against L-1210 cells in mice at a dose of 60 mg/kg administered intraperitoneally after 1 day treatment", "conditions": "Mus musculus, L1210, ip, 24 h, route intraperitoneal"}, "[5]": {"system": "RPMI-8226", "assay": "Effect on RNA synthesis was determined by incorporation of radioligand into 8226 human myeloma cells at a concentration of 0.3 ug/mL (*: >50% cell kill)"}, "[6]": {"system": "RPMI-8226", "assay": "Effect on protein synthesis was determined by incorporation of radioligand into 8226 human myeloma cells at a concentration of 10 ug/mL (*: >1 log cell kill)"}, "[7]": {"system": "Mus musculus", "assay": "Tested for percent average weekly weight change in mice at a significant dose of 100 mg/kg administered intraperitoneally in mice after 5 days of treatment", "conditions": "route intraperitoneal"}, "[8]": {"system": "Mus musculus", "assay": "Tested for percent average weekly weight change in mice at a significant dose of 80 mg/kg administered intraperitoneally after 5 days of treatment", "conditions": "route intraperitoneal"}, "[9]": {"system": "P388", "assay": "Antileukemic activity against P-388 in mice at a dose of 70 mg/kg administered intraperitoneally after 5 day treatment", "conditions": "Mus musculus, P388, ip, 120 h, route intraperitoneal"}, "[10]": {"system": "P388", "assay": "Antileukemic activity against P-388 in mice at a dose of 37.5 mg/kg administered intraperitoneally after 5 day treatment", "conditions": "Mus musculus, P388, ip, 120 h, route intraperitoneal"}, "[11]": {"system": "Mus musculus", "assay": "Tested for high-dose toxicity in mice at a significant dose of 90 mg/kg administered intraperitoneally after 1 days of treatment", "conditions": "route intraperitoneal"}, "[12]": {"system": "Mus musculus", "assay": "Tested for skin toxicity in BALB/c mice administered intraintradermally and involved concentric circular areas of ulceration"}, "[13]": {"system": "RPMI-8226", "assay": "Effect on RNA synthesis was determined by incorporation of radioligand into 8226 human myeloma cells at a concentration of 1 ug/mL. (*: >1 log cell kill)"}, "[14]": {"system": "L1210", "assay": "Antileukemic activity against L-1210 cells in mice at a dose of 37.5 mg/kg administered intraperitoneally after 5 day treatment", "conditions": "Mus musculus, L1210, ip, 120 h, route intraperitoneal"}, "[15]": {"system": "P388", "assay": "Antileukemic activity against P-388 in mice at a dose of 90 mg/kg administered intraperitoneally after 1 day treatment", "conditions": "Mus musculus, P388, ip, 24 h, route intraperitoneal"}, "[16]": {"system": "Mus musculus", "assay": "Tested for high-dose toxicity in mice at a significant dose of 30 mg/kg administered intraperitoneally after 5 days of treatment", "conditions": "route intraperitoneal"}, "[17]": {"system": "Mus musculus", "assay": "Tested for percent average weekly weight change in mice at a significant dose of 30 mg/kg administered intraperitoneally", "conditions": "route intraperitoneal"}, "[18]": {"system": "P388", "assay": "Antileukemic activity against P-388 in mice at a dose of 70 mg/kg administered intraperitoneally after 1 day treatment", "conditions": "Mus musculus, P388, ip, 24 h, route intraperitoneal"}, "[19]": {"system": "Mus musculus", "assay": "Tested for percent average weekly weight change in mice at a significant dose of 37.5 mg/kg administered intraperitoneally after 5 days of treatment", "conditions": "route intraperitoneal"}, "[20]": {"system": "RPMI-8226", "assay": "Effect on DNA synthesis was determined by incorporation of radioligand into 8226 human myeloma cells at a concentration of 0.3 ug/mL (*: >50% cell kill)"}, "[21]": {"system": "Mus musculus", "assay": "Tested for skin toxicity in BALB/c mice at a significant dose of 2.00 mg/kg administered intraintradermally and involved concentric circular areas of ulceration"}, "[22]": {"system": "L1210", "assay": "Effect on protein synthesis was determined by incorporation of radioligand into L1210 murine leukemia at a concentration of 10 ug/mL (*: >1 log cell kill)", "conditions": "Mus musculus"}, "[23]": {"system": "WiDr", "assay": "Tested in vitro for inhibitory activity of human tumor cell growth against WIDR colon tumor, by using clonogenic assays.", "conditions": "read-out: ID50 (the source's name)"}, "[24]": {"system": "Mus musculus", "assay": "Tested for skin toxicity in BALB/c mice at a significant dose of 2.5 mg/kg administered intraintradermally and involved concentric circular areas of erythema"}, "[25]": {"system": "P388", "assay": "Antileukemic activity against P-388 in mice at a dose of 80 mg/kg administered intraperitoneally after 5 day treatment", "conditions": "Mus musculus, P388, ip, 120 h, route intraperitoneal"}, "[26]": {"system": "L1210", "assay": "Effect on RNA synthesis was determined by incorporation of radioligand into L1210 murine leukemia at a concentration of 0.5 ug/mL. (*: >1 log cell kill)", "conditions": "Mus musculus"}, "[27]": {"system": "P388", "assay": "Antileukemic activity against P-388 in mice at a dose of 60 mg/kg administered intraperitoneally after 1 day treatment", "conditions": "Mus musculus, P388, ip, 24 h, route intraperitoneal"}, "[28]": {"assay": "In vitro inhibition of human UACC-66 ovarian tumor cell line growth.", "conditions": "read-out: ID50 (the source's name)"}, "[29]": {"system": "Mus musculus", "assay": "Tested for skin toxicity in BALB/c mice at a significant dose of 0.25 mg/kg administered intraintradermally and involved concentric circular areas of induration."}, "[30]": {"system": "L1210", "assay": "Antileukemic activity against L-1210 cells in mice at a dose of 80 mg/kg administered intraperitoneally after 5 day treatment", "conditions": "Mus musculus, L1210, ip, 120 h, route intraperitoneal"}, "[31]": {"system": "P388", "assay": "Antileukemic activity against P-388 in mice at a dose of 60 mg/kg administered intraperitoneally after 5 day treatment", "conditions": "Mus musculus, P388, ip, 120 h, route intraperitoneal"}, "[32]": {"system": "P388", "assay": "Antileukemic activity against P-388 in mice at a dose of 100 mg/kg administered intraperitoneally after 1 day treatment", "conditions": "Mus musculus, P388, ip, 24 h, route intraperitoneal"}, "[33]": {"system": "L1210", "assay": "Effect on RNA synthesis was determined by incorporation of radioligand into L1210 murine leukemia at a concentration of 0.3 ug/mL (*: >50% cell kill)", "conditions": "Mus musculus"}, "[34]": {"system": "RPMI-8226", "assay": "In vitro inhibition of human 8226 myeloma tumor cell line growth.", "conditions": "read-out: ID50 (the source's name)"}, "[35]": {"system": "L1210", "assay": "Effect on protein synthesis was determined by incorporation of radioligand into L1210 murine leukemia at a concentration of 0.01 ug/mL", "conditions": "Mus musculus"}, "[36]": {"system": "L1210", "assay": "Effect on DNA synthesis was determined by incorporation of radioligand into L1210 murine leukemia at a concentration of 0.5 ug/mL. (*: >1 log cell kill)", "conditions": "Mus musculus"}, "[37]": {"system": "L1210", "assay": "Effect on protein synthesis was determined by incorporation of radioligand into L1210 murine leukemia at a concentration of 1 ug/mL. (*: >1 log cell kill)", "conditions": "Mus musculus"}, "[38]": {"system": "L1210", "assay": "Effect on DNA synthesis was determined by incorporation of radioligand into L1210 murine leukemia at a concentration of 10 ug/mL (*: >1 log cell kill)", "conditions": "Mus musculus"}, "[39]": {"system": "RPMI-8226", "assay": "Effect on DNA synthesis was determined by incorporation of radioligand into 8226 human myeloma cells at a concentration of 10 ug/mL (*: >1 log cell kill)"}, "[40]": {"system": "RPMI-8226", "assay": "Effect on protein synthesis was determined by incorporation of radioligand into 8226 human myeloma cells at a concentration of 0.01 ug/mL"}, "[41]": {"system": "L1210", "assay": "Effect on DNA synthesis was determined by incorporation of radioligand into L1210 murine leukemia at a concentration of 0.3 ug/mL (*: >50% cell kill)", "conditions": "Mus musculus"}, "[42]": {"system": "RPMI-8226", "assay": "Effect on DNA synthesis was determined by incorporation of radioligand into 8226 human myeloma cells at a concentration of 0.5 ug/mL. (*: >1 log cell kill)"}}}
{"smiles": "CN(C)CCNCc1c2ccccc2c(CNCCN(C)C)c2ccccc12", "values": [{"measurement": "inhibition at 1 µg/mL", "setting": "[1]", "result": 45.9, "unit": "%"}, {"measurement": "ILS at 30 mg/kg", "setting": "[2]", "result": 0, "unit": "%"}, {"measurement": "Lethality", "setting": "[3]", "result": 20, "unit": "%"}, {"measurement": "Median day of death", "setting": "[3]", "result": 3}, {"measurement": "ILS at 60 mg/kg", "setting": "[4]", "result": 17, "unit": "%"}, {"measurement": "inhibition at 0.3 µg/mL", "setting": "[5]", "result": 0, "unit": "%"}, {"measurement": "inhibition at 10 µg/mL", "setting": "[6]", "result": 17.6, "unit": "%"}, {"measurement": "Average weekly weight change", "setting": "[7]", "result": -15, "unit": "%"}, {"measurement": "Average weekly weight change", "setting": "[8]", "result": -10, "unit": "%"}, {"measurement": "ILS at 70 mg/kg", "setting": "[9]", "result": 10, "unit": "%"}, {"measurement": "ILS at 37.5 mg/kg", "setting": "[10]", "result": 0, "unit": "%"}, {"measurement": "Lethality", "setting": "[11]", "result": 20, "unit": "%"}, {"measurement": "Median day of death", "setting": "[11]", "result": 10}, {"measurement": "Extent of skin lesions", "setting": "[12]", "result": 1.9, "unit": "cm**2"}, {"measurement": "inhibition at 1 µg/mL", "setting": "[13]", "result": 70.4, "unit": "%"}, {"measurement": "ILS at 37.5 mg/kg", "setting": "[14]", "result": 11, "unit": "%"}, {"measurement": "ILS at 90 mg/kg", "setting": "[15]", "result": -10, "unit": "%"}, {"measurement": "Lethality", "setting": "[16]", "result": 0, "unit": "%"}, {"measurement": "Average weekly weight change", "setting": "[17]", "result": -3, "unit": "%"}, {"measurement": "ILS at 70 mg/kg", "setting": "[18]", "result": 27, "unit": "%"}, {"measurement": "Average weekly weight change", "setting": "[19]", "result": -7, "unit": "%"}, {"measurement": "inhibition at 0.3 µg/mL", "setting": "[20]", "result": 8.4, "unit": "%"}, {"measurement": "Extent of skin lesions", "setting": "[21]", "result": 2.6, "unit": "cm**2"}, {"measurement": "inhibition at 10 µg/mL", "setting": "[22]", "result": 87.3, "unit": "%"}, {"measurement": "IC50", "setting": "[23]", "result": 180, "unit": "nM"}, {"measurement": "Extent of skin lesions", "setting": "[24]", "result": 5, "unit": "cm**2"}, {"measurement": "ILS at 80 mg/kg", "setting": "[25]", "result": 0, "unit": "%"}, {"measurement": "inhibition at 0.5 µg/mL", "setting": "[26]", "result": 7.2, "unit": "%"}, {"measurement": "ILS at 60 mg/kg", "setting": "[27]", "result": 11, "unit": "%"}, {"measurement": "IC50", "setting": "[28]", "result": 1600, "unit": "nM"}, {"measurement": "Extent of skin lesions", "setting": "[29]", "result": 0.7, "unit": "cm**2"}, {"measurement": "ILS at 80 mg/kg", "setting": "[30]", "result": 15, "unit": "%"}, {"measurement": "ILS at 60 mg/kg", "setting": "[31]", "result": 25, "unit": "%"}, {"measurement": "ILS at 100 mg/kg", "setting": "[32]", "result": -33, "unit": "%"}, {"measurement": "inhibition at 0.3 µg/mL", "setting": "[33]", "result": 0, "unit": "%"}, {"measurement": "IC50", "setting": "[34]", "result": 160, "unit": "nM"}, {"measurement": "inhibition at 0.01 µg/mL", "setting": "[35]", "result": 0, "unit": "%"}, {"measurement": "inhibition at 0.5 µg/mL", "setting": "[36]", "result": 5.8, "unit": "%"}, {"measurement": "inhibition at 1 µg/mL", "setting": "[37]", "result": 31.2, "unit": "%"}, {"measurement": "inhibition at 10 µg/mL", "setting": "[38]", "result": 75.7, "unit": "%"}, {"measurement": "inhibition at 10 µg/mL", "setting": "[39]", "result": 82.2, "unit": "%"}, {"measurement": "inhibition at 0.01 µg/mL", "setting": "[40]", "result": 67.5, "unit": "%"}, {"measurement": "inhibition at 0.3 µg/mL", "setting": "[41]", "result": 0, "unit": "%"}, {"measurement": "inhibition at 0.5 µg/mL", "setting": "[42]", "result": 24.3, "unit": "%"}]}
